Data from PubChem BioAssay (NCI).
Several values for one entry are separate records, joined by “and”; a condition that tells them apart may be missing. Equal values may be shown once.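 Values below derive from 48-hour exposures of cells grown in 96-well plates, with endpoints linearly interpolated between the two concentrations bracketing the appropriate inhibition level. The concentration for 50% growth inhibition is given as GI50. Definition used: TGI = concentration required for complete inhibition of growth.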

What was measured:
Test in all cases: NCI anticancer screen, dose series, 48 h
OVCAR-4 ovarian = tested on: OVCAR-4 ovarian
HOP-62 NSCLC = tested on: HOP-62 NSCLC
IGROV1 ovarian = tested on: IGROV1 ovarian
SF-539 CNS = tested on: SF-539 CNS
SK-MEL-5 melanoma = tested on: SK-MEL-5 melanoma
DU-145 prostate = tested on: DU-145 prostate
NCI/ADR-RES ovarian = tested on: NCI/ADR-RES ovarian
CAKI-1 renal = tested on: CAKI-1 renal
HS 578T breast = tested on: HS 578T breast
SNB-19 CNS = tested on: SNB-19 CNS
NCI-H460 lung = tested on: NCI-H460 lung
SN12C renal = tested on: SN12C renal
OVCAR-5 ovarian = tested on: OVCAR-5 ovarian
UACC-62 melanoma = tested on: UACC-62 melanoma
HCT-15 colon = tested on: HCT-15 colon

Row | Compound | TGI (OVCAR-4 ovarian) | TGI (HOP-62 NSCLC) | TGI (IGROV1 ovarian) | TGI (SF-539 CNS) | TGI (SK-MEL-5 melanoma) | TGI (DU-145 prostate) | TGI (NCI/ADR-RES ovarian) | TGI (CAKI-1 renal) | TGI (HS 578T breast) | TGI (SNB-19 CNS) | TGI (NCI-H460 lung) | TGI (SN12C renal) | TGI (OVCAR-5 ovarian) | TGI (UACC-62 melanoma) | TGI (HCT-15 colon) | GI50 (HOP-62 NSCLC) | GI50 (SF-539 CNS) | GI50 (NCI-H460 lung)
1 | O=C1NC(=O)C2(CCCCCC2)N1 | > 100 µM | > 100 µM | > 100 µM | > 100 µM | > 100 µM | > 100 µM | > 100 µM | > 100 µM | > 100 µM | > 100 µM | > 100 µM | > 100 µM | > 100 µM | > 100 µM | > 100 µM | – | – | –
2 | COC(=O)C1OC(O[C@H]2CC[C@]3(C)[C@H]4CC=C5[C@@H]6CC(C)(C)CC[C@]6(C(=O)OC6OCC(O)C(O)C6OC6OC(C)C(OC7OCC(O)C(OC8OCC(O)C(O)C8O)C7O)C(OC7OCC(O)C(O)C7O)C6O)CC[C@@]5(C)[C@]4(C)CC[C@H]3C2(C)C)C(O)C(OC2OCC(O)C(O)C2O)C1O (stereo partly drawn) | > 100 µM and 20.2 µM | 17.8 µM and 23.7 µM | > 100 µM and 24.9 µM | > 100 µM | 7 µM and 12.1 µM | > 70.6 µM and 37.2 µM | > 100 µM and 21 µM | 35.4 µM and 17.9 µM | > 100 µM and 33.9 µM | > 100 µM and 20.1 µM | > 100 µM | 5.4 µM and 5.69 µM | 22.5 µM and 15.8 µM | 8.36 µM and 13.7 µM | > 100 µM and 35.2 µM | 4.76 µM and 10.9 µM | > 100 µM and 47.6 µM | > 100 µM and 33.1 µM
3 | CC(C)(C)Nc1noc(=O)n1C(C)(C)C | > 100 µM | > 100 µM | > 100 µM | > 100 µM | > 100 µM | > 100 µM | > 100 µM | > 100 µM | > 100 µM | > 100 µM | > 100 µM | > 100 µM | > 100 µM | > 100 µM | > 100 µM | – | – | –
4 | CC(C)NC(=O)OCc1c(COC(=O)NC(C)C)c(-c2cc[n+](COC(=O)C(C)(C)C)cc2)n2c1CCC2 | > 100 µM | > 100 µM | > 100 µM | > 100 µM | > 100 µM | > 100 µM | > 100 µM | > 100 µM | > 100 µM | > 100 µM | > 100 µM | > 100 µM | > 100 µM | > 100 µM | > 100 µM | – | – | –
5 | O=c1[nH]nc(Cc2ccccc2)n1/N=C\c1ccccc1 | > 100 µM | > 100 µM | > 100 µM | > 100 µM | > 100 µM | > 100 µM | > 100 µM | > 100 µM | > 100 µM | – | > 100 µM | > 100 µM | > 100 µM | > 100 µM | > 100 µM | – | – | –
6 | COc1ccc(OCc2ccc3nc(-c4ccccc4)c(Cl)nc3c2)cc1 | 95.4 µM | 28.6 µM | > 100 µM | 42.3 µM | 25.8 µM | > 100 µM | > 100 µM | 51.4 µM | > 100 µM | 68.2 µM | > 100 µM | > 100 µM | > 100 µM | – | > 100 µM | – | – | –
7 | CC(=O)Nc1cc2c3c(c1)CCCN3CCC2 | > 100 µM | – | > 100 µM | > 100 µM | > 100 µM | > 100 µM | > 100 µM | > 100 µM | > 100 µM | > 100 µM | > 100 µM | – | > 100 µM | > 100 µM | > 100 µM | – | – | –
8 | COCCCNC(=O)C1=C(C)NC(C)=C(C(=O)NCCCOC)C1 | > 100 µM | > 100 µM | 26.9 µM | > 100 µM | > 100 µM | > 100 µM | > 100 µM | > 100 µM | > 100 µM | > 100 µM | > 100 µM | > 100 µM | > 100 µM | > 100 µM | – | – | – | –
9 | O=C(Nc1ccccc1)N(C1=NCC(CI)S1)c1ccc(F)cc1F (stereo not drawn) | > 100 µM | > 100 µM | 52 µM | > 100 µM | > 100 µM | > 100 µM | > 100 µM | 66.9 µM | > 100 µM | > 100 µM | – | > 100 µM | > 100 µM | > 100 µM | > 100 µM | – | – | –
10 | CC(SC(=S)N1CCOCC1)C(=O)Nc1nnc(-c2ccccc2)o1 (stereo not drawn) | > 100 µM | > 100 µM | > 100 µM | > 100 µM | > 100 µM | > 100 µM | 96.4 µM | > 100 µM | > 100 µM | > 100 µM | > 100 µM | > 100 µM | > 100 µM | – | > 100 µM | – | – | –
11 | COc1cc(S(=O)(=O)Nc2ccc(-c3csc(N)n3)cc2)ccc1Cl | 27.9 µM | – | – | > 100 µM | 30.6 µM | 32.4 µM | 83.3 µM | 45 µM | > 100 µM | 33.8 µM | – | 38.5 µM | 40.4 µM | 30 µM | 43.6 µM | – | – | –
12 | Cc1ccc(Nc2c(C#N)[n+]([O-])c3cc(Cl)ccc3[n+]2[O-])cc1 | > 100 µM | > 100 µM | > 100 µM | > 100 µM | – | > 100 µM | > 100 µM | > 100 µM | > 100 µM | > 100 µM | > 100 µM | > 100 µM | > 100 µM | > 100 µM | > 100 µM | – | – | –
13 | COc1cc(OC)c2nc(C)c3c(c2c1)NCC3 | 15.6 µM | 21.6 µM | 34 µM | 16.4 µM | 21.6 µM | 59 µM | 71.2 µM | – | 15.1 µM | 40.7 µM | 12 µM | 18.9 µM | 25.6 µM | 22.4 µM | 25.9 µM | – | – | –
14 | C=C(C)[C@@]1(OC(=O)c2cc([N+](=O)[O-])cc([N+](=O)[O-])c2)C[C@@H]2CCCC[C@@H]21 | > 100 µM | > 100 µM | > 100 µM | > 100 µM | – | > 100 µM | > 100 µM | > 100 µM | > 100 µM | > 100 µM | > 100 µM | > 100 µM | > 100 µM | > 100 µM | > 100 µM | – | – | –
15 | CCOC(=O)c1cnc2n(c1=N)[C@H]1CCCC[C@@H]1N2 | > 100 µM | – | > 100 µM | > 100 µM | > 100 µM | > 100 µM | > 100 µM | > 100 µM | > 100 µM | > 100 µM | > 100 µM | > 100 µM | > 100 µM | > 100 µM | > 100 µM | – | – | –
16 | CC1=CC[C@@]2(CO)[C@@H]([C@@H]1C)[C@H]1CC[C@@H]3[C@@]4(C)CC[C@H](O)C(C)(C)[C@@H]4CC[C@@]3(C)[C@]1(C)C[C@@H]2O | > 100 µM | 39.8 µM | 82.3 µM | – | 42.1 µM | > 100 µM | > 100 µM | > 100 µM | > 100 µM | > 100 µM | > 100 µM | > 100 µM | > 100 µM | > 100 µM | > 100 µM | – | – | –
17 | O=C(O)c1cc(/C=C/c2cc(O)ccc2O)ccc1O | > 10 µM | – | – | > 10 µM | – | > 10 µM | > 10 µM | – | > 10 µM | > 10 µM | > 10 µM | > 10 µM | > 10 µM | > 10 µM | > 10 µM | – | – | –
18 | Cc1nc(N/N=C/c2ccccc2Cl)[nH]c(=O)c1CCO | > 100 µM | 50.4 µM | > 100 µM | > 100 µM | > 100 µM | > 100 µM | > 100 µM | – | 81.1 µM | > 100 µM | > 100 µM | > 100 µM | > 100 µM | > 100 µM | > 100 µM | – | – | –
19 | CC(NC(=O)C(N)CC(=O)O)NC(=O)C1CCC1 (stereo not drawn) | > 100 µM | > 100 µM | – | > 100 µM | > 100 µM | > 100 µM | > 100 µM | > 100 µM | > 100 µM | > 100 µM | > 100 µM | > 100 µM | > 100 µM | > 100 µM | > 100 µM | – | – | –
20 | COC(=O)[C@@H]1CN(C(C)=O)C(=O)N1C(=O)OCc1ccccc1 | > 100 µM | > 100 µM | > 100 µM | > 100 µM | > 100 µM | > 100 µM | > 100 µM | > 100 µM | > 100 µM | > 100 µM | > 100 µM | > 100 µM | > 100 µM | – | > 100 µM | – | – | –
21 | CC(NC(=O)c1ccccc1)NC(=O)C(C)C(=O)Nc1ccccc1 (stereo not drawn) | > 100 µM | – | > 100 µM | > 100 µM | > 100 µM | > 100 µM | > 100 µM | > 100 µM | > 100 µM | 71.7 µM | > 100 µM | > 100 µM | > 100 µM | > 100 µM | > 100 µM | – | – | –
22 | Cc1cc(S(=O)(=O)Nc2cc(N)[nH]n2)c(SCc2nc(N)nc(N(C)C)n2)cc1Cl | > 10 µM | > 10 µM | > 10 µM | > 10 µM | > 10 µM | > 10 µM | > 10 µM | > 10 µM | > 10 µM | > 10 µM | > 10 µM | > 10 µM | > 10 µM | – | > 10 µM | – | – | –
23 | CO/N=C(\C(=O)N(C)n1cnnc1)c1csc(NC(c2ccccc2)(c2ccccc2)c2ccccc2)n1 | > 10 µM | > 10 µM | > 10 µM | > 10 µM | > 10 µM | > 10 µM | > 10 µM | > 10 µM | > 10 µM | > 10 µM | > 10 µM | > 10 µM | > 10 µM | – | > 10 µM | – | – | –
